Results from patent US20130296347A1, “Compositions and Methods for Prophylaxis and Treatment of Addictions” (Omeros Corporation, priority 2007, published 2013).

Experiments:
[1] = tested on: Wistar rats; experiment: Acquisition of heroin self-administration (FR1); assay type: in vivo, rat
[2] = tested on: Wistar rats; experiment: Alcohol withdrawal score after six days of intermittent alcohol intoxication; assay type: in vivo, rat
Method: Male Wistar rats were subjected to a six days of intermittent alcohol intoxication. […] The first ethanol dose was given at the beginning of the dark phase. The other 3 daily doses were administered at intervals of 3 hours. Rats were not injected during the light phase of the light/dark cycle. […] Behavioural signs of withdrawal included: (1) presence of the ventromedial distal flexion response; (2) tail stiffness/rigidity; and (3) tremors (Schulteis et al. 1995). […] Schulteis, et al., 1995). All signs were cumulated to yield an overall withdrawal severity score.

[3] = tested on: Long Evans rats; experiment: FR5 nicotine self-administration; assay type: in vivo, rat; settings: pioglitazone 30 mg/kg OS 12 hours and 1 hour before session; p<0.05
Method: Bupropion hydrochloride (Sigma, Milan, Italy) was dissolved in saline. Nicotine tartrate (Sigma, Milan, Italy) was dissolved in isotonic saline at a concentration of 0.03 mg/0.1 ml free base. The pH of the nicotine solution was adjusted to 7 with dilute NaOH. Drug or vehicle solution was infused at a volume of 0.1 ml over 4 s.
(§1) Male Long Evans rats weighing between 180 and 200 g at the time of arrival in the lab were used. The rats were housed in groups of three in a humidity- and temperature-controlled (22° C.) vivarium on a 12 h:12 h reverse light/dark cycle (on, 17:00; off, 05:00) with ad libitum access to food and water. One week after arrival, the rats were subjected to surgery, and a silastic catheter was implanted into the right jugular vein.
After the successful completion of cocaine training, rats were allowed to self-administer nicotine at the 0.03 mg/kg/infusion dose by switching the delivery of cocaine for the delivery of a nicotine infusion. Nicotine self-administration training continued until stable baseline of responding was established (less than 20% variation for 3 consecutive days calculated for each single rat). At this point, drug testing began.
. […] A 3-day interval was allowed between drug testing. During these intervals, nicotine self-administration was continued to re-establish lever responses baseline.
Statistical significance was set at P<0.05

[4] = tested on: heavy tobacco smokers; experiment: Pilot clinical study in heavy tobacco smokers; assay type: in vivo, human
Method: Data were recorded for two months, during which patients were seen by the physician every other week. Patients were instructed to record in a personal logbook the number of cigarettes per day and the time of the day smoking occurred. At the end of the study, the logbooks were returned to the clinical personnel who analyzed the data. […] During the first month of treatment, every two weeks, ACTH and cortisol levels were also monitored to evaluate HPA activation before and during treatment.

[5] = tested on: Wistar rats; experiment: FR5 cocaine self-administration; assay type: in vivo, rat; settings: pioglitazone both 10.0 and 30.0 mg/kg OS 12 hours and 1 hour before session
Method: […]. Drug or vehicle solution was infused at a volume of 0.1 ml over 4 s.
as §1, with “Wistar” for “Long Evans”, “h: 12” for “h:12”, “arrival,” for “arrival, the”
Cocaine self-administration training continued until a stable baseline of responding was reached (less than 10% variation for 3 consecutive days calculated for each single rat). At this point, drug testing begun.
. […] A 3-day interval was allowed between drug testing. During these intervals, cocaine self-administration was continued to re-establish baseline lever responses.

[6] = tested on: CD mice; experiment: Tail-flick test, morphine-induced analgesic tolerance; assay type: in vivo, mouse; settings: pioglitazone alone 10 or 30 mg/kg
Method: All procedures were conducted in adherence to the European Community Council Directive for Care and Use of Laboratory Animals.
Mice were divided into 6 groups. Group 1 (n=8) received drug vehicles (veh/veh). […] Animals were treated twice daily (between 9:00 and 10:00 a.m. and 9:00 and 10:00 p.m.).
Morphine hydrochloride was purchased from Salars (Milano, Italy). Morphine (30 mg/kg) was dissolved in NaCl […] and was injected intraperitoneally (IP) twice a day at the indicated doses in a volume of 0.2 ml per mice. […] It was dissolved in distilled water and was administered per o.s. at the doses of 10 mg/kg and 30 mg/kg in a volume of 0.6 ml per mice.
Two different tests were used to monitor analgesic responses. The tail-flick test was performed 45 min after the morning injection of morphine, and the tail-immersion test was performed 45 min after the evening injection of morphine.
For the tail-flick test, each mouse was gently restrained in a soft tissue pocket, and the tail (1 cm from the tip) was exposed to a hot light beam. Latency for tail-flick was measured with a 6 seconds cut-off time. For the tail-immersion test, each mouse was restrained in a soft tissue pocket, and the distal half of the tail dipped into a water bath set at 52 C°. Latency for removing the tail from the hot water was measured with a 10 seconds cut-off time.

[7] = pioglitazone 10 and 30 mg/kg, p<0.01

SMILES: CCc1ccc(CCOc2ccc(CC3SC(=O)NC3=O)cc2)nc1.Cl (stereo not drawn) [pioglitazone]
- heroin self-administration versus control, day 3 to day 8 ([1]; pioglitazone 30 mg/kg twice daily): significant difference
- acquisition of heroin self-administration ([1]; pioglitazone 30 mg/kg twice daily (12 hours and 1 hour prior to session)): significantly decreased
- alcohol withdrawal signs ([2]; pioglitazone 10 mg/kg and 30 mg/kg, 12 hours and 1 hour before rating): significantly reduced
- tail rigidity [2, 7]: highly significant effect
- tremors [2, 7]: highly significant effect
- ventromedial limb retraction [2, 7]: highly significant effect
- rats showing seizures during withdrawal ([2]; pioglitazone treated rats (two out of 7 vehicle animals showed convulsion)): none of the 12 rats
- nicotine self-administration [3]: significantly reduced
- weekly smoked cigarettes, pioglitazone versus varenicline (post hoc) ([4]; human, in vivo): no significant differences
- craving score (visual analogic craving scale) ([4]; over treatment): highest reduction
- STAI anxiety score ([4]; over treatment weeks): significantly reduced
- weekly smoked cigarettes compared to bupropione (post hoc) ([4]; p<0.05): significant difference
- subjects reaching complete abstinence ([4]; pioglitazone 4 patients, varenicline 3 patients): One
- cocaine self-administration [5]: significant (p<0.01) reduction
- analgesic responses (tail-flick) [6]: did not differ from controls
